Values of other authors in US7786168B2, “Phenolic acid salts of gabapentin in solid dosage forms and methods of use” (Kiel Laboratories, Inc., priority 2003, dated 2010).

Columns and labels:
[1] = in water and across a wide range of pH
[2] = biological target: gb1a-gb^2 heterodimer and post-synaptic GABAB receptor (Homo sapiens, UniProt Q9UBS5)
gb1a-gb^2 heterodimer and post-synaptic GABAB receptor, sequence (Q9UBS5 15-961 limits assumed): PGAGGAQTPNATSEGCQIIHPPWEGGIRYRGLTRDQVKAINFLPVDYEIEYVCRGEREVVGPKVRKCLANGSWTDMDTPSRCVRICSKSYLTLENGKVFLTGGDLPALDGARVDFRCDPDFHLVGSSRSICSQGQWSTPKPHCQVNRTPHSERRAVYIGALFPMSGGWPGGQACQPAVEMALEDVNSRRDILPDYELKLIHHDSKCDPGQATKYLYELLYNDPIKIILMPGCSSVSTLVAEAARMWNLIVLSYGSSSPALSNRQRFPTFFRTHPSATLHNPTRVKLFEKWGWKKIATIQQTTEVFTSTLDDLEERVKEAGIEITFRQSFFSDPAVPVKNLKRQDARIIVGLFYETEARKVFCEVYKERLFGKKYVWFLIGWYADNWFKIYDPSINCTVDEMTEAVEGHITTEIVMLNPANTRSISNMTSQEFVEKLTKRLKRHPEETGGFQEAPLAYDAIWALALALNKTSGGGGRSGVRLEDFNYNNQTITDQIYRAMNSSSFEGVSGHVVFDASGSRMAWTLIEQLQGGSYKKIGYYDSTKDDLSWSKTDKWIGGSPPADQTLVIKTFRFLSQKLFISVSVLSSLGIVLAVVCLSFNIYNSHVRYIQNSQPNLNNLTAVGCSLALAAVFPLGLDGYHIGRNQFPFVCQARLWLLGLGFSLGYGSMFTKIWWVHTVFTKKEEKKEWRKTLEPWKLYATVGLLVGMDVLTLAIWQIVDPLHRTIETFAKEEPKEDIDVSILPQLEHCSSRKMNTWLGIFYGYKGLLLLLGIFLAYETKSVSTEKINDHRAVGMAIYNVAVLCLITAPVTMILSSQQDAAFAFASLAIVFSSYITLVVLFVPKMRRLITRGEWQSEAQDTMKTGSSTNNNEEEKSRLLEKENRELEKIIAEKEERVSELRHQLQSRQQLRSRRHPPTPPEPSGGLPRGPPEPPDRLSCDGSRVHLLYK
gb1a-gb^2 heterodimer and post-synaptic GABAB receptor, sequence (O75899 42-941 partner): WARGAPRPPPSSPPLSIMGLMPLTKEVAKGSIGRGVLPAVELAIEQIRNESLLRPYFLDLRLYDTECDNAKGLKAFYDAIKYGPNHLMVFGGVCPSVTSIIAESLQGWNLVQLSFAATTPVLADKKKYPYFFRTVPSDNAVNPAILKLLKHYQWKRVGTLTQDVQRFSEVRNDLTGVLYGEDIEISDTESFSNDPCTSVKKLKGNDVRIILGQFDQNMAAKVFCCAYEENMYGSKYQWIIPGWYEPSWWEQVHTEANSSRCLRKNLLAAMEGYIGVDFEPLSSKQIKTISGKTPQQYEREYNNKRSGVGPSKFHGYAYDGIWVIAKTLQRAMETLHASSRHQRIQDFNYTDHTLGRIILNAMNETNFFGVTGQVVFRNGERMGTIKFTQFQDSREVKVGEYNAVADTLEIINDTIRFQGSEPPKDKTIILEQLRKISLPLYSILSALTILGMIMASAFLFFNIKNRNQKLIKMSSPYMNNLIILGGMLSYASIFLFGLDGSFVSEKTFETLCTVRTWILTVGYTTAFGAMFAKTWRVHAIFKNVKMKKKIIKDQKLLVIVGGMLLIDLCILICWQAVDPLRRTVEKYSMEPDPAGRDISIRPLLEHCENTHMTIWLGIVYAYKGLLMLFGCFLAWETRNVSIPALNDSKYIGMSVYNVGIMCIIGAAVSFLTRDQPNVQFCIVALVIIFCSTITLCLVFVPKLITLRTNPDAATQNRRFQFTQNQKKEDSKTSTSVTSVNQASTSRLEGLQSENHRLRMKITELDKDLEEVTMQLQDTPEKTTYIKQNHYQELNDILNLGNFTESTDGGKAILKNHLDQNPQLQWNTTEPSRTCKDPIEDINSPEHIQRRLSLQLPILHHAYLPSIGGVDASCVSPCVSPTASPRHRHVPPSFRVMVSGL

For NCC1(CC(=O)O)CCCCC1 [gabapentin, 1-(aminomethyl) cyclohexaneacetic acid], the “time of peak plasma gabapentin concentrations” value (adults, post-dose) is listed as 2 to 3 h, the absolute bioavailability (after administration of 300 mg, dose-dependent) is listed as “approximately 60%” and the metabolism (in vivo) is listed as “not metabolized”. For the same compound, the route of elimination (in vivo) was “eliminated via glomerular filtration”, the “crossing of the blood-brain barrier” value (unlike GABA) was “able to cross the blood-brain barrier” and the plasma protein binding (plasma proteins) was “does not bind to plasma proteins”. The solubility [1] was “freely soluble” and the agonist activity [2] was “selective agonist”.
